In paper PMC11822212, “High-throughput screening identifies Aurora kinase B as a critical therapeutic target for Merkel cell carcinoma” (Nature Communications, 2025):
Where a name gives a salt, the structure may show the parent alone. Read-outs that look alike come from different tables or passages of the source.

Tests used:
[1] = test system: VP-MCC cell lines (WAGA, MKL-1, MKL-2); test: qHTS cell viability, VP-MCC cell lines as a group (mean AUC, VP.MCC.avg); format: cell-based, human
MKL-2 cells (VP-MCC) = test: qHTS cell viability (CellTiter-Glo, 72 h; primary and follow-up small molecule screen); format: cell-based, human
HEK293T cells = test: qHTS cell viability (CellTiter-Glo, 72 h; primary screen), control cell line; format: cell-based, human
UISO cells (VN-MCC) = test: qHTS cell viability (CellTiter-Glo, 72 h; primary and follow-up small molecule screen); format: cell-based, human
MCC26 cells (VN-MCC) = test: as above; format: cell-based, human
HACAT cells = test: qHTS cell viability (CellTiter-Glo, 72 h; primary screen), control cell line; format: cell-based, human
[2] = test system: VN-MCC cell lines (MCC13, MCC26, UISO); test: qHTS cell viability, VN-MCC cell lines as a group (mean AUC, VN.MCC.avg); format: cell-based, human
MKL-1 cells (VP-MCC) = test: qHTS cell viability (CellTiter-Glo, 72 h; primary and follow-up small molecule screen); format: cell-based, human
CRL-7250 cells = test: qHTS cell viability (CellTiter-Glo, 72 h; primary screen), control cell line; format: cell-based
MCC13 cells (VN-MCC) = test: qHTS cell viability (CellTiter-Glo, 72 h; primary and follow-up small molecule screen); format: cell-based, human
[3] = test system: control cell lines (HACAT, HEK293T, CRL-7250, NIH-3T3); test: qHTS cell viability, control cell lines as a group (mean AUC, Control.avg); format: cell-based
NIH-3T3 cells = test: qHTS cell viability (CellTiter-Glo, 72 h; primary screen), control cell line; format: cell-based, mouse
[4] = test system: six MCC cell lines and four control cell lines; test: qHTS cell viability, all 10 cell lines screened; format: cell-based
WAGA cells (VP-MCC) = test: qHTS cell viability (CellTiter-Glo, 72 h; primary and follow-up small molecule screen); format: cell-based, human
[5] = test system: MCC cell lines (WAGA, MKL-1, MKL-2, MCC13, MCC26, UISO); test: qHTS cell viability, all six MCC cell lines as a group (mean AUC, MCC.avg); format: cell-based, human
[6] = NPC library, mean AUC of VP-MCC cell lines
[7] = NPC library, therapeutic window: Control avg AUC minus VP-MCC avg AUC
[8] = NPC library, qHTS dose-response AUC, MKL2
[9] = NPC library, qHTS dose-response AUC, HEK293T control
[10] = NPC library, qHTS dose-response AUC, UISO
[11] = NPC library, qHTS dose-response AUC, MCC26
[12] = NPC library, qHTS dose-response AUC, HACAT control
[13] = NPC library, mean AUC of VN-MCC cell lines
[14] = NPC library, therapeutic window: Control avg AUC minus VN-MCC avg AUC
[15] = NPC library, qHTS dose-response AUC, MKL1
[16] = NPC library, qHTS dose-response AUC, CRL7250 control
[17] = NPC library, qHTS dose-response AUC, MCC13
[18] = NPC library, mean AUC of control cell lines
[19] = NPC library, qHTS dose-response AUC, NIH3T3 control
[20] = NPC library, therapeutic window: Control avg AUC minus MCC avg AUC
[21] = NPC library, qHTS dose-response AUC, WAGA
[22] = NPC library, mean AUC of six MCC cell lines

| Structure (SMILES) | VP-MCC_Avg_AUC [1, 6] | Control-VP-MCC [1, 7] | MKL2_AUC (MKL-2 cells (VP-MCC); [8]) | HEK293T_AUC (HEK293T cells; [9]) | UISO_AUC (UISO cells (VN-MCC); [10]) | MCC26_AUC (MCC26 cells (VN-MCC); [11]) | HACAT_AUC (HACAT cells; [12]) | VN-MCC_Avg_AUC [2, 13] | Control-VN-MCC [2, 14] | MKL1_AUC (MKL-1 cells (VP-MCC); [15]) | CRL7250_AUC (CRL-7250 cells; [16]) | MCC13_AUC (MCC13 cells (VN-MCC); [17]) | Control_Avg_AUC [3, 18] | NIH3T3_AUC (NIH-3T3 cells; [19]) | Control-MCC [4, 20] | WAGA_AUC (WAGA cells (VP-MCC); [21]) | MCC_Avg_AUC [5, 22] | further results |
| --- | --- | --- | --- | --- | --- | --- | --- | --- | --- | --- | --- | --- | --- | --- | --- | --- | --- | --- |
| Cc1nc2ccccn2c(=O)c1CCN1CCC(C(=O)c2ccc(F)cc2)CC1 [Pirenperone] | 411.748 | 54.686 | 400.974 | 450.239 | 436.893 | 401.594 | 457.02 | 426.258 | 40.1758 | 418.427 | 480.924 | 440.287 | 466.434 | 477.551 | 47.4309 | 415.843 | 419.003 | MKL2_AUC (MKL-2 cells (VP-MCC); area under the dose-response curve, MKL-2 cells, AUC<450 = reduced viability): 400.974; HEK293T_AUC (HEK293T cells; area under the dose-response curve, HEK293T control cells, AUC<450 = reduced viability): 450.239; UISO_AUC (UISO cells (VN-MCC); area under the dose-response curve, UISO cells, AUC<450 = reduced viability): 436.893; MCC26_AUC (MCC26 cells (VN-MCC); area under the dose-response curve, MCC26 cells, AUC<450 = reduced viability): 401.594; HACAT_AUC (HACAT cells; area under the dose-response curve, HACAT control cells, AUC<450 = reduced viability): 457.02; MKL1_AUC (MKL-1 cells (VP-MCC); {}): 418.427; CRL7250_AUC (CRL-7250 cells; area under the dose-response curve, CRL7250 control cells, AUC<450 = reduced viability): 480.924; MCC13_AUC (MCC13 cells (VN-MCC); area under the dose-response curve, MCC13 cells, AUC<450 = reduced viability): 440.287; NIH3T3_AUC (NIH-3T3 cells; area under the dose-response curve, NIH3T3 control cells, AUC<450 = reduced viability): 477.551; WAGA_AUC (WAGA cells (VP-MCC); area under the dose-response curve, WAGA cells, AUC<450 = reduced viability): 415.843 |
| CC[N+]1(CC)CCC(=C(c2ccccc2)c2ccccc2)C1C (stereo not drawn) [Prifinium bromide] | 414.775 | 53.5255 | 411.638 | 463.923 | 446.738 | 492.512 | 452.968 | 472.229 | -3.929 | 413.62 | 489.513 | 477.436 | 468.3 | 466.796 | 24.7984 | 419.066 | 443.502 |  |
| COc1cc(NC(C)CCCN)c2ncccc2c1 (stereo not drawn) [Primaquine diphosphate] |  |  |  |  |  |  |  |  |  |  |  |  |  |  |  |  |  | Control-VP-MCC [1]: 69.0896; VP-MCC_Avg_AUC [1]: 409.912; MKL2_AUC (MKL-2 cells (VP-MCC)): 418.75; HEK293T_AUC (HEK293T cells): 455.709; UISO_AUC (UISO cells (VN-MCC)): 458.954; MCC26_AUC (MCC26 cells (VN-MCC)): 495.867; HACAT_AUC (HACAT cells): 484.209; Control-VN-MCC [2]: 11.3144; VN-MCC_Avg_AUC [2]: 467.687; MKL1_AUC (MKL-1 cells (VP-MCC)): 406.282; CRL7250_AUC (CRL-7250 cells): 485.915; MCC13_AUC (MCC13 cells (VN-MCC)): 448.24; Control_Avg_AUC [3]: 479.001; NIH3T3_AUC (NIH-3T3 cells): 490.172; Control-MCC [4]: 40.202; WAGA_AUC (WAGA cells (VP-MCC)): 404.704; MCC_Avg_AUC [5]: 438.799 |
| CCCC(C(=O)OCCN(CC)CC)(c1ccccc1)c1ccccc1 [Proadifen hydrochloride] | 400.877 | 59.0165 | 398.333 | 426.534 | 416.723 | 413.531 | 477.751 | 425.473 | 34.42 | 383.197 | 484.159 | 446.167 | 459.893 | 451.129 | 46.7182 | 421.101 | 413.175 |  |
